US20240301319A1, “PERFUMING COMPOSITIONS” (FIRMNICH SA, priority 2017, published 2024)
Where a name gives a salt, the structure may show the parent alone.

Experiments:
[1] = Volatility of perfuming compounds (Tables 4 to 10), with top/middle/bottom note type; format: physicochemical
Procedure: In some aspects, the first perfume accord comprises perfuming compounds having a volatility ranging from 70,000 to 100 μg/l in air. In some aspects, perfuming compounds having a volatility ranging from 70,000 to 100 μg/l in air are referred to as “top notes”.
In some aspects, the second perfume accord comprises perfuming compounds having a volatility ranging from 99 to 50 μg/l in air. In some aspects, perfuming compounds having a volatility ranging from 99 to 50 μg/l in air are referred to as “middle notes”.
In some aspects, the third perfume accord comprises perfuming compounds having a volatility ranging from 49 to 0.1 μg/l in air. In some aspects, perfuming compounds having a volatility ranging from 49 to 0.1 μg/l in air are referred to as “bottom notes”.
Tables 4 to 10 describe top, middle and bottom note perfuming compounds for watery, green, fruity, citrus, sweet, gourmand and woody notes respectively.

[2] = Odor threshold and odor value of perfuming compounds (Tables 4 to 10)
[3] = Table 10, perfuming compounds having a woody note, note type by volatility
[4] = Table 8, perfuming compounds having a sweet note
[5] = Table 8, perfuming compounds having a sweet note, note type by volatility
[6] = Table 9, perfuming compounds having a gourmand note, note type by volatility
[7] = note type (Top/Middle/Bottom) by volatility, perfuming compounds having a green note
[8] = perfuming compounds having a green note
[9] = Table 6, perfuming compounds having a fruity note
[10] = Table 6, perfuming compounds having a fruity note, note type by volatility
[11] = Table 7, citrus note, top, middle or bottom note
[12] = Table 7, citrus note, equals volatility divided by odor threshold

Row | Structure (SMILES) | Type [1, 3] | Volatility ([1]; Table 10, woody note) | Odor Threshold ([2]; Table 10, woody note) | Type [1, 7] | Volatility (μg/l air) [1, 8] | Odor Threshold (μg/l air) [2, 8] | Volatility [1, 9] | Type [1, 10] | Odor Threshold [2, 9] | Odor Value [2, 9] | Volatility (μg/l air) ([1]; Table 7, citrus note) | Type [1, 11] | Odor Threshold (μg/l air) ([2]; Table 7, citrus note) | Odor Value [2, 12] | other results
1 | CC1=CCC(/C=C/C(C)C(C)O)C1(C)C (stereo not shown) | Bottom | 20.41 μg/l air | 9.56E−05 μg/l air |  |  |  |  |  |  |  |  |  |  |  | 
2 | CCCCO [1-BUTANOL] | Top | 17700.00 μg/l air | 8.70E−02 μg/l air | Top | 17700.00 μg/l air | 8.70E−02 μg/l air |  |  |  |  |  |  |  |  | Volatility [1, 4]: 17700.00 μg/l air; Type [1, 5]: Top; Volatility ([1]; Table 9, gourmand note): 17700.00 μg/l air; Type [1, 6]: Top; Odor Threshold [2, 4]: 8.70E−02 μg/l air; Odor Value [2, 4]: 2.03E+05; Odor Threshold ([2]; Table 9, gourmand note): 8.70E−02 μg/l air
3 | CC(CO)c1ccccc1 (racemic) [(+−)-2-phenyl-1-propanol] |  |  |  | Top | 142.19 μg/l air | 3.62E−02 μg/l air |  |  |  |  |  |  |  |  | 
4 | C[C@H]1[C@@H]2C[C@H](C[C@@]13C=CC(=O)CC3)C2(C)C | Bottom | 4.14 μg/l air | 6.32E−04 μg/l air |  |  |  | 4.14 μg/l air | Bottom | 6.32E−04 μg/l air | 6.54E+03 |  |  |  |  | 
5 | CC1(CO)CC1CC1CC2CC2(C)C1(C)C (stereo not shown) | Bottom | 1.74 μg/l air | 2.18E−06 μg/l air |  |  |  |  |  |  |  |  |  |  |  | 
6 | CCC/C=C/C=O [(2E)-2-HEXENAL] |  |  |  | Top | 33708.26 μg/l air | 2.53E−03 μg/l air | 33708.26 μg/l air | TOP (perfuming compounds having a volatility ranging from 70,000 to 100 μg/l in air are referred to as “top notes”) |  |  | 33708.26 μg/l air | Top | 2.53E−03 μg/l air | 1.33E+07 | 
7 | CCC(CC(C)CC)=NO (stereo not shown) [5-METHYL-3-HEPTANONEOXIME] |  |  |  |  |  |  |  |  |  |  |  |  |  |  | Volatility ([1]; Table 9, gourmand note): 128.04 μg/l air; Type [1, 6]: Top; Odor Threshold ([2]; Table 9, gourmand note): 8.80E−03 μg/l air
8 | CC/C=C\CCOC(C)=O [(Z)-3-HEXENYL ACETATE] |  |  |  | Top | 3398.34 μg/l air | 1.00E−02 μg/l air |  |  |  |  |  |  |  |  | 
9 | O=C(Cc1ccccc1)OCCc1ccccc1 [2-PHENYLETHYL PHENYLACETATE] |  |  |  |  |  |  | 0.20 μg/l air | Bottom | 9.08E−04 μg/l air | 2.24E+02 | 0.20 μg/l air | Bottom | 9.08E−04 μg/l air | 2.24E+02 | Volatility [1, 4]: 0.20 μg/l air; Type [1, 5]: Bottom; Volatility ([1]; Table 9, gourmand note): 0.20 μg/l air; Type [1, 6]: Bottom; Odor Threshold [2, 4]: 9.08E−04 μg/l air; Odor Value [2, 4]: 2.24E+02; Odor Threshold ([2]; Table 9, gourmand note): 9.08E−04 μg/l air
10 | C/C=C/c1ccc(OC(C)=O)c(OC)c1 [(E)-2-METHOXY-4-(1-PROPENYL)PHENYL ACETATE] |  |  |  |  |  |  | 1.85 μg/l air | Bottom | 4.08E−07 μg/l air | 4.54E+06 | 1.85 μg/l air | Bottom | 4.08E−07 μg/l air | 4.54E+06 | 
11 | C/C=C(\C)C(=O)OCc1ccccc1 [BENZYL (E)-2-METHYL-2-BUTENOATE] | Bottom | 33.88 μg/l air | 3.07E−04 μg/l air |  |  |  | 33.88 μg/l air | Bottom | 3.07E−04 μg/l air | 1.11E+05 |  |  |  |  | 
12 | C/C=C/C(=O)C1=C(C)CCCC1(C)C | Middle | 81.66 μg/l air | 2.18E−04 μg/l air |  |  |  | 81.66 μg/l air | Middle | 2.18E−04 μg/l air | 3.75E+05 |  |  |  |  | 
13 | CC(C)=CCCC(C)CCOC=O (racemic) [(+−)-3,7-DIMETHYL-6-OCTENYL FORMATE] |  |  |  | Top | 262.84 μg/l air | 1.72E−03 μg/l air | 262.84 μg/l air | TOP (perfuming compounds having a volatility ranging from 70,000 to 100 μg/l in air are referred to as “top notes”) |  |  |  |  |  |  | 
14 | CO[C@]1(C)CC[C@@]23C[C@@H]1C(C)(C)[C@@H]2CC[C@H]3C (racemic) [(+−)-8-methoxycedrane] | Bottom | 42.22 μg/l air | 2.09E−02 μg/l air |  |  |  |  |  |  |  |  |  |  |  | 
15 | CCCOC(=O)[C@H](C)OC(C)(C)CC [(−)-PROPYL (S)-2-(1,1-DIMETHYLPROPOXY)PROPANOATE] |  |  |  |  |  |  |  |  |  |  | 995.16 μg/l air | Top | 4.98E−01 μg/l air | 2.00E+03 | 
16 | CCCCC[C@H]1C(=O)CC[C@@H]1CC(=O)OC (racemic) [methyl 2-((1RS,2RS)-3-oxo-2-pentylcyclopentyl)acetate] |  |  |  |  |  |  |  |  |  |  | 2.12 μg/l air | Bottom | 5.77E−04 μg/l air | 3.67E+03 | 
